The values below come from patent publication US9890171B2, “Aldosterone synthase inhibitors” (Boehringer Ingelheim International GmbH, priority 2014, dated 2018).

pIC50: −log10 of the molar value.

Sequence of aldosterone synthase (CYP11B2) (A0A2K5UPL9 1-503): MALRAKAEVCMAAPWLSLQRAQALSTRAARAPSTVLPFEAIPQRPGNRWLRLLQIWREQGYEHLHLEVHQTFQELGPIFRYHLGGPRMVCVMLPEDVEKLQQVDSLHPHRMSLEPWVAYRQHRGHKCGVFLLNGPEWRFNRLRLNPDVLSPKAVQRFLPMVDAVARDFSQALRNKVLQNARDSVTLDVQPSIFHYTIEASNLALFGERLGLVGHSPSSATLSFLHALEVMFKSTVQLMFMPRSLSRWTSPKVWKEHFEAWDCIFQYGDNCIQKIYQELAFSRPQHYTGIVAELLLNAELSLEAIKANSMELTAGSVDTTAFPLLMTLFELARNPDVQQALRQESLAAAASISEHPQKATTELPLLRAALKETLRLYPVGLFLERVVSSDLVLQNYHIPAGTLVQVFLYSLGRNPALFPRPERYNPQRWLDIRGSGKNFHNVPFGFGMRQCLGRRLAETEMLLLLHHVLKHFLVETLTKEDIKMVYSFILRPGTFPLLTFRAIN

The target in the assay is aldosterone synthase (CYP11B2) (Macaca fascicularis, UniProt A0A2K5UPL9). Kind of assay: aldosterone synthase inhibition assay. To be noted: cynomolgus adrenal gland mitochondria, 2 μM corticosterone, aldosterone quantified by mass spectrometry. The format is biochemical, cynomolgus monkey. A digest of the protocol:
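Cynomolgus adrenal mitochondria ([…]) used as CYP11B2 source with 2 μM corticosterone in 100 mM potassium phosphate pH 7.4, 1% DMSO; reaction started with 1 mM NADPH, run 60-90 min at 37° C. Aldosterone measured by mass spectrometry; IC50 from 4-parameter logistic fit, no-NADPH blank as 0%.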
Broadly, the pIC50 is the IC50 on a negative log10 scale, so that one unit is a factor of ten. A high value points to a low IC50. `Cn1ncc2ccc(-c3cncc4c3COCC4(C)O)cc21` (single isomer, unassigned) [Compound 169, 4-Methyl-8-(1-methyl-1H-indazol-6-yl)-3,4-dihydro-1H-pyrano[4,3-c]pyridin-4-ol] showed a pIC50 of 7.86. To `Cn1ncc2ccc(-c3cncc4c3COCC4(C)O)cc21` (single isomer, unassigned) [Compound 170, 4-Methyl-8-(1-methyl-1H-indazol-6-yl)-3,4-dihydro-1H-pyrano[4,3-c]pyridin-4-ol] belongs 8.11; to `Cn1nc(F)c2ccc(-c3cncc4c3COCC4(C)O)cc21` (single isomer, unassigned) [Compound 171, 8-(3-Fluoro-1-methyl-1H-indazol-6-yl)-4-methyl-3,4-dihydro-1H-pyrano[4,3-c]pyridin-4-ol], 7.72; to `Cn1nc(F)c2ccc(-c3cncc4c3COCC4(C)O)cc21` (single isomer, unassigned) [Compound 172, 8-(3-Fluoro-1-methyl-1H-indazol-6-yl)-4-methyl-3,4-dihydro-1H-pyrano[4,3-c]pyridin-4-ol], 7.99. Next, `Cn1ncc2c(C#N)cc(-c3cncc4c3COCC4(C)O)cc21` (single isomer, unassigned) [Compound 173, 6-(4-Hydroxy-4-methyl-3,4-dihydro-1H-pyrano[4,3-c]pyridin-8-yl)-1-methyl-1H-indazole-4-carbonitrile]: 6.47; `Cn1ncc2c(C#N)cc(-c3cncc4c3COCC4(C)O)cc21` (single isomer, unassigned) [Compound 174, 6-(4-Hydroxy-4-methyl-3,4-dihydro-1H-pyrano[4,3-c]pyridin-8-yl)-1-methyl-1H-indazole-4-carbonitrile]: 5.36.

The compound `Cn1ncc2c(F)cc(-c3cncc4c3COCC4(C)O)cc21` (single isomer, unassigned) [Compound 175, 8-(4-Fluoro-1-methyl-1H-indazol-6-yl)-4-methyl-3,4-dihydro-1H-pyrano[4,3-c]pyridin-4-ol] had a negative logarithm of the IC50 (pIC50) of 7.67. Turning to `Cn1ncc2c(F)cc(-c3cncc4c3COCC4(C)O)cc21` (single isomer, unassigned) [Compound 176, 8-(4-Fluoro-1-methyl-1H-indazol-6-yl)-4-methyl-3,4-dihydro-1H-pyrano[4,3-c]pyridin-4-ol], the pIC50 is 7.87.

Regarding `Cn1nc(C#N)c2ccc(-c3cncc4c3COCC4(C)O)cc21` (single isomer, unassigned) [Compound 177, 6-(4-Hydroxy-4-methyl-3,4-dihydro-1H-pyrano[4,3-c]pyridin-8-yl)-1-methyl-1H-indazole-3-carbonitrile], the pIC50 is 7.37.

For the compound `Cn1nc(C#N)c2ccc(-c3cncc4c3COCC4(C)O)cc21` (single isomer, unassigned) [Compound 178, 6-(4-Hydroxy-4-methyl-3,4-dihydro-1H-pyrano[4,3-c]pyridin-8-yl)-1-methyl-1H-indazole-3-carbonitrile], the negative logarithm of the IC50 (pIC50) is 7.82. To `Cn1ncc2ccc(-c3cncc4c3C(C)(O)COC4)cc21` (single isomer, unassigned) [Compound 179, 4-Methyl-5-(1-methyl-1H-indazol-6-yl)-3,4-dihydro-1H-pyrano[3,4-c]pyridin-4-ol] belongs 7.41. Next, `Cn1ncc2ccc(-c3cncc4c3C(C)(O)COC4)cc21` (single isomer, unassigned) [Compound 180, 4-Methyl-5-(1-methyl-1H-indazol-6-yl)-3,4-dihydro-1H-pyrano[3,4-c]pyridin-4-ol]: 6.55; `O=C1CCc2nc(-c3cncc4c3COCC4O)ccc21` (single isomer, unassigned) [Compound 181, 2-(4-Hydroxy-3,4-dihydro-1H-pyrano[4,3-c]pyridin-8-yl)-6,7-dihydro-[1]pyrindin-5-one]: 6.82; `CC1(C)COc2ccc(-c3cncc4c3COCC4O)cc21` (single isomer, unassigned) [Compound 182, 8-(3,3-Dimethyl-2,3-dihydro-benzofuran-5-yl)-3,4-dihydro-1H-pyrano[4,3-c]pyridin-4-ol]: 6.30.
